Experimental data from article PMC5430738, “Psiguajadials A–K: Unusual Psidium Meroterpenoids as Phosphodiesterase-4 Inhibitors from the Leaves of Psidium guajava” (Scientific Reports, 2017).

molecular target: T1, PDE4D2 (Homo sapiens, UniProt Q08499); experiment: PDE4D2 enzymatic inhibition assay (3H-cAMP substrate); assay type: biochemical; settings: human PDE4D2 catalytic domain, 25 °C, 15 min, read-out: IC50 against PDE4D2
T1 construct: human PDE4D2 (catalytic domain, residues 86 –413); made in house; host or cells: E. coli BL21 (Codonplus)
T1 sequence (Q08499 388-715): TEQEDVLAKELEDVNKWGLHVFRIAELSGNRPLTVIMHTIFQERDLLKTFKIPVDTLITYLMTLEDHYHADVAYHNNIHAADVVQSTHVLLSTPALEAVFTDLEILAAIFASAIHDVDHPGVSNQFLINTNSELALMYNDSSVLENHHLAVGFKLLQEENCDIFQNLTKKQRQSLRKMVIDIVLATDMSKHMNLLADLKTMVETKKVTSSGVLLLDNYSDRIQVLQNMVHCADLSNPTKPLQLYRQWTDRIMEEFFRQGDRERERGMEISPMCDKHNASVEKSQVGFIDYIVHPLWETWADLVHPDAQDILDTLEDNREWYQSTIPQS
Description: The protocols for expression, purification, and enzymatic assays of PDE4D2 were similar to those we described previously. More details about the experimental procedures are provided in Supplementary S3.
S3. Experimental section Extraction and isolation and PDE4D assay
S3.1. Extraction and isolation […]
S3.2. Expression and purification of PDE4D2 prot ein
subcloned into the expression vector pET15b. All these resultant plasmids were transformed into E.
coli strain BL21 (Codonplus) for over expression. The E. coli cells carrying these plasmids were
grown in LB medium at 37 /g113C to OD600 = 0.7, and then 0.1 mM isopropyl
/g69-D-thiogalactop yranoside was added for further growth at 16 /g113C for 20–40 h. The recombinant
protein was purified by Ni-NTA column (Qiagen).
The enz ymatic activities of PDE4D cat al ytic domain and the inhibition of PDE4D by extracted
reactions were occured in mixture containing 50 mM Tris/HCl (pH 7.5), 10 mM MgCl2, 0.5 mM
DTT at room temperature (25 /g113C) for 15 min. The reactions were terminated by addition of 0.2 M
Zn S O 4 and Ba(OH)2. The reaction product 3H-AMP was precipitated out, while unreacted
3H-cAMP remained in the supernatant. The mechanism was illustrated as shown below (Scheme
S3.2). Radioactivity in the supernatant was measured in 2.5 mL Ultima Gold liquid scintillation
repeated at least three times. The IC 50 values were calculated by nonlinear regression. As a […]

Row | IC50 [nM] | Compound
1 | > 50000 | CC1=CCC(C)(C)C=CCC2(C)Oc3c(C=O)c(O)c(C=O)c(O)c3C(c3ccccc3)C2CC1 (single isomer, unassigned; (+)) [Compound 15, (+)-guajadial B]
2 | > 50000 | CC1=CCC(C)(C)C=CCC2(C)Oc3c(C=O)c(O)c(C=O)c(O)c3C(c3ccccc3)C2CC1 (single isomer, unassigned; (-)) [Compound 14, (−)-guajadial B]
3 | 3110 ± 100 | CC(C)C1CCC(C)C23CCC4(CC(c5ccccc5)c5c(O)c(C=O)c(O)c(C=O)c5O4)C2C13 (stereo not shown) [Compound 1, Psiguajadial A]
4 | 5030 ± 330 | CC(C)C1CCC(C)C23CC4C(c5ccccc5)c5c(O)c(C=O)c(O)c(C=O)c5OC4(C)C2C13 (stereo not shown) [Compound 2, Psiguajadial B]
5 | 4500 ± 280 | CC1=C2C3CC(C)(C(c4ccccc4)c4c(O)c(C=O)c(O)c(C=O)c4O3)C2C2C(CC1)C2(C)C (stereo not shown) [Compound 3, Psiguajadial C]
6 | 4140 ± 260 | C=C1CCC2Cc3c(O)c(C=O)c(O)c(C(=O)c4ccccc4)c3OC2(C)CCC2C1CC2(C)C (stereo not shown) [Compound 4, Psiguajadial D]
7 | 3250 ± 200 | CC1=CCCC2(C)C(c3ccccc3)c3c(O)c(C=O)c(O)c(C=O)c3OC2C2C(CC1)C2(C)C (stereo not shown) [Compound 5, Psiguajadial E]
8 | 2630 ± 130 | CC1(C)CC2C1CCC13CC2(C)CCC1C(c1ccccc1)c1c(O)c(C=O)c(O)c(C=O)c1O3 (stereo not shown) [Compound 6, Psiguajadial F]
9 | 1340 ± 330 | C=C1CCC2C(c3ccccc3)c3c(O)c(C=O)c(O)c(C=O)c3OC2(C)CCC2C1CC2(C)C (stereo not shown) [Compound 7, Psiguajadial G]
10 | 1810 ± 90 | CC(C)C1CCC(C)C2CCC3(C=C12)CC(c1ccccc1)c1c(O)c(C=O)c(O)c(C=O)c1O3 (stereo not shown) [Compound 8, Psiguajadial H]
11 | 2510 ± 170 | CC(C)C1CCC(C)C2CCC3(C=C12)CC(c1ccccc1)c1c(O)c(C=O)c(O)c(C=O)c1O3 (stereo not shown) [Compound 9, Psiguajadial I]
12 | 2530 ± 330 | CC(C)C1CCC(C)C2CC3C(c4ccccc4)c4c(O)c(C=O)c(O)c(C=O)c4OC3(C)C=C12 (stereo not shown) [Compound 10, Psiguajadial J]
13 | 3680 ± 270 | CC(C)C12CCC3(CC(c4ccccc4)c4c(O)c(C=O)c(O)c(C=O)c4O3)C1C2 (stereo not shown) [Compound 11, Psiguajadial K]
14 | 4330 ± 210 | CC1=CCCC2(C)Oc3c(C=O)c(O)c(C=O)c(O)c3C(c3ccccc3)C2C2C(CC1)C2(C)C (stereo not shown) [Compound 12, Guajavadial C]
15 | 3420 ± 210 | CC1=CCCC2(C)C(c3ccccc3)c3c(O)c(C=O)c(O)c(C=O)c3OC2C2C(CC1)C2(C)C (stereo not shown) [Compound 13, psiguadial D]
16 | 7260 ± 410 | CC1CCC2C(C3C4(C)CCC13Oc1c(C=O)c(O)c(C=O)c(O)c1C4c1ccccc1)C2(C)C (stereo not shown) [Compound 16, psiguadial A]
17 | 5610 ± 510 | C=C1CCC2Cc3c(O)c(C(=O)c4ccccc4)c(O)c(C=O)c3OC2(C)CCC2C1CC2(C)C (stereo not shown) [Compound 17, guapsidial A]
18 | 1600 ± 90 | C=C1CCC2C(c3ccccc3)c3c(O)c(C=O)c(O)c(C=O)c3OC2(C)CCC2C1CC2(C)C (stereo not shown) [Compound 18, psidial A]
19 | 1620 ± 80 | C=C1CCC2C(c3ccccc3)c3c(O)c(C=O)c(O)c(C=O)c3OC2(C)CCC2C1CC2(C)C (stereo not shown) [Compound 19, guajadial]
20 | 1370 ± 70 | C=C1CCC2C(c3ccccc3)c3c(O)c(C=O)c(O)c(C=O)c3OC2(C)CCC2C1CC2(C)C (stereo not shown) [Compound 20, psiguajadial L]
21 | 2280 ± 110 | CC(C)C1CCC(C)C2CCC3(C=C12)CC(c1ccccc1)c1c(O)c(C=O)c(O)c(C=O)c1O3 (stereo not shown) [Compound 21, Guajadial C]
22 | 1930 ± 110 | CC(C)C1CCC(C)C2CCC3(C=C12)CC(c1ccccc1)c1c(O)c(C=O)c(O)c(C=O)c1O3 (stereo not shown) [Compound 22, Guajadial D]
23 | 2730 ± 150 | CC(C)C1CCC(C)C2CC3C(c4ccccc4)c4c(O)c(C=O)c(O)c(C=O)c4OC3(C)C=C12 (stereo not shown) [Compound 23, Guajadial E]
24 | 2670 ± 170 | CC(C)C1CCC(C)C2CC3C(c4ccccc4)c4c(O)c(C=O)c(O)c(C=O)c4OC3(C)C=C12 (stereo not shown) [Compound 24, Guajadial F]
25 | 2010 ± 70 | CC(C)C12CC3C(c4ccccc4)c4c(O)c(C=O)c(O)c(C=O)c4OC3(C)C1C2 (stereo not shown) [Compound 25, guajavadial A]
26 | 2700 ± 150 | CC(C)C12CCC3(CC(c4ccccc4)c4c(O)c(C=O)c(O)c(C=O)c4O3)C1C2 (stereo not shown) [Compound 26, guadial A]
27 | > 50000 | CC1(C)C2CC3C(c4ccccc4)c4c(O)c(C=O)c(O)c(C=O)c4OC3(C)C1C2 (stereo not shown) [Compound 27, guadial B]
28 | 17100 ± 960 | CC1(C)C2CCC3(CC(c4ccccc4)c4c(O)c(C=O)c(O)c(C=O)c4O3)C1C2 (stereo not shown) [Compound 28, guadial C]
